Literature values as cited in patent US20100190739A1, “Rapidly Dissolving Vitamin Formulation and Methods of Using the Same” (FLEMING AND COMPANY, PHARMACEUTICALS, priority 2008, published 2010).

Experiments:
[1] = Institute of Medicine
[2] = not given; remark: listed apart in the source

[Cr] [Chromium, chromium]
Doses that can cause adverse reactions (some evidence): above 250 μg

Cc1ncc(C[n+]2csc(CCO)c2C)c(N)n1 [Example B1, thiamine]
Dose with no evidence of oral toxicity (doses as high as, taken for extended periods of time): 200 mg

Cc1ncc(CO)c(CO)c1O [Example B6, pyridoxine]
Tolerable upper limit [1]: 100 mg/day
Dose showing potential damage to sensory nerves (long term study): 200 mg/day

[Mn+2] [Manganese, manganese]
Tolerable upper limit [1]: 11 mg/day
Fraction of dietary intake absorbed [2]: 3-5%

[Mo] [Molybdenum, molybdenum]
Intake causing significant losses of copper (in vivo): above 500 μg/day

[Se] [Selenium, selenium]
Tolerable upper limit [1]: 0.4 mg/day

[Zn] [Zinc, zinc]
Tolerable upper limit [1]: 40 mg/day
Doses at which acute toxicity can occur (as low as) (in vivo): ≥ 30 mg/day
Doses at which acute toxicity is more common (in vivo): exceeding 100 mg/day

O=C(O)c1cccnc1 [niacin]
Tolerable upper limit [1]: 35 mg/day

cobalamin [Example B12]
Level at which toxicity has not been demonstrated (in vivo): 10,000 × the recommended daily allowance (RDA)
